{"source": "patent US10953209B2", "about": "“Treating tumors using TTFields combined with a PARP inhibitor” (Board of Regents of the University of Texas System, priority 2018, dated 2021)", "type_in_all_cases": "cell-based, Human", "key": {"H1299 cell line [1]": {"system": "H1299 cell line", "test": "Clonogenic survival, triple combination of TTFields, IR and Olaparib (CI)", "settings": "TTFields 48 h, Olaparib 20 μM"}, "H1299 NSCLC cell line": {"system": "H1299 NSCLC cell line", "test": "Clonogenic survival, TTFields + Olaparib combination (Highest Single Agent CI)", "settings": "for CI TTFields + Olap 10 μM: Olaparib 10 μM; for CI TTFields + Olap 10 μM / CI TTFields + Olap 20 μM / CI TTFields + Olap 40 μM: CI>1 = synergistic; for CI TTFields + Olap 20 μM: Olaparib 20 μM; for CI TTFields + Olap 40 μM: Olaparib 40 μM", "description": "(§1) Experiments similar to those discussed above in connection with Table 2 and FIG. 6 were also conducted, but with exposure to IR replaced with exposure to three different concentrations (either 10, 20, and 40 μM; or 12.5, 25, and 50 μM, depending on the cell line) of the PARP inhibitor Olaparib. More specifically, Olaparib at each of the different concentrations was added to cells and the cells were then exposed to TTFields for 30 or 60 h (or not exposed to TTFields for the control) and immediately plated for survival. Baseline growth curves for exposing the various NSCLC cell lines to different concentrations of Olaparib without TTFields are depicted in FIG. 7. Clonogenic assays are depicted in FIG. 8 for the different combinations of drug concentration and TTFields exposure time in Table 3.\n(§2) The inventors considered the combined effect of TTFields and Olaparib to be synergistic if the combination index (CI) was >1 and the P-value was <0.05 for a given time point and a given cell line.\n(§3) Human NSCLC cell lines (H157, H4006, A549, H1299 and H1650) were purchased from American Tissue Culture Collection. All these cell lines were grown in RPMI medium supplemented with 10% (v/v) fetal bovine serum (Atlanta Biologicals, Flowery Branch, Ga., USA) and penicillin/[…] (final concentration 50 μg/ml; Sigma-Aldrich, St. Louis, Mo., U29SA). All cells were grown at 37° C. in a humidified incubator constantly supplied with 5% CO2.\n(§4) The inventors used the inovitro system (NovoCure Ltd, Haifa, Israel) to generate TTFields that use two pairs of electrodes printed perpendicularly on the outer walls of a Petri dish composed of high dielectric constant ceramic (lead magnesium niobate-lead titanite (PMN-PT)). The transducer arrays were connected to a sinusoidal waveform generator that generate low-intensity electric fields at the desired frequencies in the medium as summarized in Table 1 above. The orientation of the TTFields was switched 90° every 1 s, thus covering the majority of the orientation axis of cell divisions, as previously described by Kirson et al. Plate temperature was maintained at 37° C. by placing the plates in a refrigerated incubator where the temperature was maintained at 19° C. to dissipate the heat generated by the inovitro system. The temperature was measured by 2 thermistors (Omega Engineering, Stamford, Conn., USA) attached to the ceramic walls. All cell suspensions were grown on a cover slip inside the inovitro dish (NovoCure Ltd) and treated with TTFields for the times indicated in the figure legends.\n(§5) To study the effect of radiation sensitivity on NSCLC cells, exponentially growing cells were treated with IR using a Mark II Cs irradiator (J L Shepherd and Associates) at a dose rate of 3.47 Gy/min, followed by immediate application of TTFields for 24, 48 and 72 h. Cells were then re-seeded into 60 mm dishes and incubated for up to 2 weeks. Colonies containing 50 or more cells were considered viable. The data are presented as the mean±S.E.M. of three independent experiments. The radiosensitization effect of TTFields was evaluated according to The Highest Single Agent approach by calculating the CI as given below. CI=SFIR×SFTTFields)/SFIR+TTFields Where SF=Survivalfraction\n(§6) The combination effect was considered enhanced/synergistic when CI>1, additive when CI=1. Statistical significance for a positive effect was determined by the P-value of a two-way ANOVA multiple comparison statistical test comparing the combination (TTFields plus IR) to the single agent showing the greatest cell killing for a given dose and time after IR."}, "H4006 NSCLC cell line": {"system": "H4006 NSCLC cell line", "test": "Clonogenic survival, TTFields + Olaparib combination (Highest Single Agent CI)", "settings": "for CI TTFields + Olap 12.5 μM: Olaparib 12.5 μM; for CI TTFields + Olap 12.5 μM / CI TTFields + Olap 25 μM / CI TTFields + Olap 50 μM: CI>1 = synergistic; for CI TTFields + Olap 25 μM: Olaparib 25 μM; for CI TTFields + Olap 50 μM: Olaparib 50 μM", "description": "as §1, §2, §3, §4, §5, §6"}, "A549 NSCLC cell line": {"system": "A549 NSCLC cell line", "test": "Clonogenic survival, TTFields + Olaparib combination (Highest Single Agent CI)", "settings": "for CI TTFields + Olap 12.5 μM: Olaparib 12.5 μM; for CI TTFields + Olap 12.5 μM / CI TTFields + Olap 25 μM / CI TTFields + Olap 50 μM: CI>1 = synergistic; for CI TTFields + Olap 25 μM: Olaparib 25 μM; for CI TTFields + Olap 50 μM: Olaparib 50 μM", "description": "as §1, §2, §3, §4, §5, §6"}, "H157 NSCLC cell line": {"system": "H157 NSCLC cell line", "test": "Clonogenic survival, TTFields + Olaparib combination (Highest Single Agent CI)", "settings": "for CI TTFields + Olap 10 μM: Olaparib 10 μM; for CI TTFields + Olap 10 μM / CI TTFields + Olap 20 μM / CI TTFields + Olap 40 μM: CI>1 = synergistic; for CI TTFields + Olap 20 μM: Olaparib 20 μM; for CI TTFields + Olap 40 μM: Olaparib 40 μM", "description": "as §1, §2, §3, §4, §5, §6"}, "H157 cell line": {"system": "H157 cell line", "test": "Clonogenic survival, triple combination of TTFields, IR and Olaparib (CI)", "settings": "Olaparib 20 μM; for CI TTFields + Olap + 1 Gy: 1 Gy IR; for CI TTFields + Olap + 2 Gy: 2 Gy IR; for CI TTFields + Olap: no IR", "description": "(§7) Experiments similar to those discussed above in connection with Table 2 and FIG. 6 were also conducted for H1299 and H157 cell lines, both with and without the PARP inhibitor Olaparib. More specifically, Olaparib (at a concentration of 20 μM) was added to cells, the cells were immediately exposed to TTFields for 24, […], or 72 h, removed, irradiated (at different doses of radiation), and immediately plated for survival.\n(§8) The combination effect was evaluated using the Highest Single Agent approach and are listed in Table 4 and depicted in FIGS. 9A and 9B, which summarize the clonogenic assays for the different combinations of RT dosage and TTFields exposure time in the table, both with and without the Olaparib.\nas §2, §3, §4, §5\n(§9) For the Triple Combination of TTFields, IR, and Olaparib, CI was calculated using the following equations: CI(TTFields+olap)=(SFOlap×SFTTFields)/SFOlap+TTFields CI(TTFields+1Gy)=(SF1Gy×SFTTFields)/SF1Gy+TTFields CI(TTFields+2Gy)=(SF2Gy×SFTTFields)/SF2Gy+TTFields CI(TTFields+olap+1Gy)=(SF1Gy+Olap×SFTTFields)/SFOlap+TTFields+1Gy CI(TTFields+olap+2Gy)=(SF2Gy+Olap×SFTTFields)/SFOlap+TTFields+2Gy Where SF=Survival fraction"}, "H1299 cell line [2]": {"system": "H1299 cell line", "test": "Clonogenic survival, triple combination of TTFields, IR and Olaparib (CI)", "settings": "Olaparib 20 μM; for CI TTFields + Olap + 1 Gy: 1 Gy IR; for CI TTFields + Olap + 2 Gy: 2 Gy IR; for CI TTFields + Olap: no IR", "description": "as §7, §8, §2, §3, §4, §5, §9"}, "[3]": {"settings": "all tested concentrations, synergistic if CI >1 and P <0.05"}, "[4]": {"settings": "synergistic if CI >1 and P <0.05"}}}
{"smiles": "O=C(c1cc(Cc2n[nH]c(=O)c3ccccc23)ccc1F)N1CCN(C(=O)C2CC2)CC1", "note": "[Olaparib]", "values": [{"measurement": "CI TTFields + Olap + 1 Gy", "setting": "H1299 cell line [1]; 1 Gy IR", "value": 1.70}, {"measurement": "CI TTFields + Olap + 2 Gy", "setting": "H1299 cell line [1]; 2 Gy IR", "value": 2.20}, {"measurement": "CI TTFields + Olap", "setting": "H1299 cell line [1]; no IR", "value": 1.02}, {"measurement": "CI TTFields + Olap 10 μM", "setting": "H1299 NSCLC cell line; TTFields 30 h", "value": 1.12}, {"measurement": "CI TTFields + Olap 20 μM", "setting": "H1299 NSCLC cell line; TTFields 30 h", "value": 1.42}, {"measurement": "CI TTFields + Olap 40 μM", "setting": "H1299 NSCLC cell line; TTFields 30 h", "value": 1.9}, {"measurement": "CI TTFields + Olap 10 μM", "setting": "H1299 NSCLC cell line; TTFields 60 h", "value": 1.4}, {"measurement": "CI TTFields + Olap 20 μM", "setting": "H1299 NSCLC cell line; TTFields 60 h", "value": 1.5}, {"measurement": "CI TTFields + Olap 40 μM", "setting": "H1299 NSCLC cell line; TTFields 60 h", "value": 3.7}, {"measurement": "combined effect of TTFields and Olaparib on cell death", "setting": "H1299 NSCLC cell line; [3]", "value": "synergistic"}, {"measurement": "CI TTFields + Olap 12.5 μM", "setting": "H4006 NSCLC cell line; TTFields 30 h", "value": 1.17}, {"measurement": "CI TTFields + Olap 25 μM", "setting": "H4006 NSCLC cell line; TTFields 30 h", "value": 1.17}, {"measurement": "CI TTFields + Olap 50 μM", "setting": "H4006 NSCLC cell line; TTFields 30 h", "value": 1.32}, {"measurement": "CI TTFields + Olap 12.5 μM", "setting": "H4006 NSCLC cell line; TTFields 60 h", "value": 1.13}, {"measurement": "CI TTFields + Olap 25 μM", "setting": "H4006 NSCLC cell line; TTFields 60 h", "value": 1.34}, {"measurement": "CI TTFields + Olap 50 μM", "setting": "H4006 NSCLC cell line; TTFields 60 h", "value": 1.96}, {"measurement": "combined effect of TTFields and Olaparib on cell death", "setting": "H4006 NSCLC cell line; [3]", "value": "synergistic"}, {"measurement": "CI TTFields + Olap 12.5 μM", "setting": "A549 NSCLC cell line; TTFields 30 h", "value": 1.12}, {"measurement": "CI TTFields + Olap 25 μM", "setting": "A549 NSCLC cell line; TTFields 30 h", "value": 1.46}, {"measurement": "CI TTFields + Olap 50 μM", "setting": "A549 NSCLC cell line; TTFields 30 h", "value": 1.32}, {"measurement": "CI TTFields + Olap 12.5 μM", "setting": "A549 NSCLC cell line; TTFields 60 h", "value": 1.39}, {"measurement": "CI TTFields + Olap 25 μM", "setting": "A549 NSCLC cell line; TTFields 60 h", "value": 1.716}, {"measurement": "CI TTFields + Olap 50 μM", "setting": "A549 NSCLC cell line; TTFields 60 h", "value": 1.53}, {"measurement": "combined effect of TTFields and Olaparib on cell death", "setting": "A549 NSCLC cell line; [3]", "value": "synergistic"}, {"measurement": "CI TTFields + Olap 10 μM", "setting": "H157 NSCLC cell line; TTFields 30 h", "value": 1.3}, {"measurement": "CI TTFields + Olap 20 μM", "setting": "H157 NSCLC cell line; TTFields 30 h", "value": 1.44}, {"measurement": "CI TTFields + Olap 40 μM", "setting": "H157 NSCLC cell line; TTFields 30 h", "value": 1.78}, {"measurement": "CI TTFields + Olap 10 μM", "setting": "H157 NSCLC cell line; TTFields 60 h", "value": 1.63}, {"measurement": "CI TTFields + Olap 20 μM", "setting": "H157 NSCLC cell line; TTFields 60 h", "value": 1.43}, {"measurement": "CI TTFields + Olap 40 μM", "setting": "H157 NSCLC cell line; TTFields 60 h", "value": 1.68}, {"measurement": "combined effect of TTFields and Olaparib on cell death", "setting": "H157 NSCLC cell line; [3]", "value": "synergistic"}, {"measurement": "combined effect of TTFields, IR, and Olaparib on cell death", "setting": "H157 cell line; [4]", "value": "synergistic"}, {"measurement": "CI TTFields + Olap + 1 Gy", "setting": "H157 cell line; TTFields 24 h", "value": 2.25}, {"measurement": "CI TTFields + Olap + 2 Gy", "setting": "H157 cell line; TTFields 24 h", "value": 2.36}, {"measurement": "CI TTFields + Olap", "setting": "H157 cell line; TTFields 24 h", "value": 0.97}, {"measurement": "CI TTFields + Olap + 1 Gy", "setting": "H157 cell line; TTFields 48 h", "value": 2.12}, {"measurement": "CI TTFields + Olap + 2 Gy", "setting": "H157 cell line; TTFields 48 h", "value": 2.07}, {"measurement": "CI TTFields + Olap", "setting": "H157 cell line; TTFields 48 h", "value": 1.02}, {"measurement": "CI TTFields + Olap + 1 Gy", "setting": "H157 cell line; TTFields 72 h", "value": 1.66}, {"measurement": "CI TTFields + Olap + 2 Gy", "setting": "H157 cell line; TTFields 72 h", "value": 2.57}, {"measurement": "CI TTFields + Olap", "setting": "H157 cell line; TTFields 72 h", "value": 1.49}, {"measurement": "combined effect of TTFields, IR, and Olaparib on cell death", "setting": "H1299 cell line [2]; [4]", "value": "synergistic"}, {"measurement": "CI TTFields + Olap + 1 Gy", "setting": "H1299 cell line [2]; TTFields 24 h", "value": 1.64}, {"measurement": "CI TTFields + Olap + 2 Gy", "setting": "H1299 cell line [2]; TTFields 24 h", "value": 1.96}, {"measurement": "CI TTFields + Olap", "setting": "H1299 cell line [2]; TTFields 24 h", "value": 1.03}, {"measurement": "CI TTFields + Olap + 1 Gy", "setting": "H1299 cell line [2]; TTFields 72 h", "value": 1.89}, {"measurement": "CI TTFields + Olap + 2 Gy", "setting": "H1299 cell line [2]; TTFields 72 h", "value": 3.08}, {"measurement": "CI TTFields + Olap", "setting": "H1299 cell line [2]; TTFields 72 h", "value": 1.06}]}
